Measured values published in ChEMBL document CHEMBL3351829, “Nostosins, Trypsin Inhibitors Isolated from the Terrestrial Cyanobacterium Nostoc sp. Strain FSN” (J Nat Prod, 2014).

Tests used:
Trypsin (Sus scrofa) = Trypsin (Sus scrofa) (UniProt P00761); assay: (§1) Inhibition of pig pancreas trypsin type IX-S using Boc-Gln-Ala-Arg-MCA substrate by 7-amino-4-methylcoumarin release based spectrofluorometry; conditions: TDE = time-dependent effect
Trypsin [1] = molecular target: T1, Trypsin (Sus scrofa, UniProt P00761); assay: as §1
Trypsin [2] = molecular target: T1, Trypsin; assay: Inhibition of pig pancreas trypsin type IX-S

T1 sequence (P00761 whole entry): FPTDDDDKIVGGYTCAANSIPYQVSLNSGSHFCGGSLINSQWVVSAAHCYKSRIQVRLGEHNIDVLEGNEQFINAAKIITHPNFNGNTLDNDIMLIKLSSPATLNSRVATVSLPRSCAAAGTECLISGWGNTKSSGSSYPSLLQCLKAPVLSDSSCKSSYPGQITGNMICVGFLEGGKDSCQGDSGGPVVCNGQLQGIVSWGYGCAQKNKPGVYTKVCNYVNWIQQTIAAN
Trypsin (Sus scrofa), sequence (P00761 whole entry): as above

Row | Compound | inhibition (Trypsin (Sus scrofa)) | IC50 (Trypsin [1]) | IC50 (Trypsin [2])
1 | CC[C@H](C)[C@H](NC(=O)C(O)CCc1ccc(O)cc1)C(=O)N[C@H](C=O)CCCNC(=N)N (some centres not stated) | tde | 350 nM | –
2 | C[C@H]1C[C@@H](C(=O)NC(C=O)CCCNC(=N)N)N(C(=O)[C@@H](CCc2ccc(O)cc2)NC(=O)[C@H](O)Cc2ccc(O)cc2)C1 (some centres not stated) [SPUMIGIN E] | – | < 100 nM | –
3 | CC[C@H](C)[C@H](NC(=O)C(O)CCc1ccc(O)cc1)C(=O)N[C@H](CO)CCCNC(=N)N (some centres not stated) | tde | 55000 nM | –
4 | CC(=O)N[C@@H](CC(C)C)C(=O)N[C@@H](CC(C)C)C(=O)N[C@H](C=O)CCCNC(=N)N [LEUPEPTIN] | – | 500 nM | > 200 nM
